These results are taken from publication PMC7493962, “Structure-based inhibitors targeting the alpha-helical domain of the Spiroplasma melliferum histone-like HU protein” (Scientific Reports, 2020).

Converted amounts (≈) assume the structure as drawn. Read-outs that look alike come from different tables or passages of the source.

Data set [1] deals with HUMgal (Mycoplasmoides gallisepticum, UniProt A0A0F6CKR5). As to the kind of experiment: EMSA, inhibition of HUMgal DNA binding. Also noted: species or system Mycoplasma gallisepticum.
Protocol: (§3) One protein was from mycoplasma M. gallisepticum (HUMgal) and another was HUα-homodimer from E. coli (HUEc). […] To assess the effect of the three BDFs on DNA binding properties of the three HU proteins, increasing concentrations of inhibitors were mixed with preset DNA–protein complexes and EMSA was performed and quantified as described in the Methods.
(§4) Binding of HU proteins to DNA was analyzed by electrophoretic mobility shift assays (EMSA) performed as described previously[5]. Different amounts of the HU proteins (30 nM HUSpm and HUSpm_K35T, 60 nM HUMgal and HUEc, 100 nM HUSpm_K80A and HUSpm_K88A, and 200 mM HUSpm_R57A) were incubated with DNA (10 nM) in 10 μl of the binding buffer (20 mM Tris–HCl pH 8.0, 7% glycerol, and 150 mM of NaCl) for 10 min. Then, the samples were loaded to pre-runned (125 V, 30 min) 10% non-denaturing PAAG, buffered with 100 mM Tris–borate, and electrophoretically separated (125 V, 90 min). […] Gels were visualized using BIO RAD Faros FX Molecular Imager (532 nm EX, 605 nm BP), and quantification was performed using Quantity One software.
(§5) To evaluate the effects of inhibitors, 1 μl volumes of serial dilutions of tested compounds or DMSO were added to the preformed protein-DNA complexes. After five minute incubation, the assay was carried out as described above. Inhibition curves and IC50 values were obtained using GraphPad Prism 5 software.
Data set [2] has as its target HUSpm (Spiroplasma melliferum, UniProt A0ABX5UAT3). Put plainly: biochemical. In kind it is binding. As to the method: In silico screening by molecular docking and filtering was performed to identify compounds interacting with the core region of the DNA-binding saddle-like domain of HU proteins (Fig. 1A) previously characterized in[35]. High-resolution spatial structure of HUSpm (PDB ID 5L8Z[9]) was chosen as a target for virtual screening of one million compounds from the Vitas-M laboratory library collection (https://vitasmlab.biz/). The screening (see "Methods" for a description) identified a set of five compounds (Supplementary Table S1), further evaluation of which was carried out by an electromobility shift assay (EMSA) performed as described in[5]. In the assay, formation of DNA–protein complexes retards migration of dye-labeled DNA-duplexes during non-denaturing PAGE that gives a shifted fluorescent band. The presence of an inhibitor prevents complex formation and corresponding band shifting.
All oligonucleotides were synthesized by Evrogen (Moscow, Russia).
For 48 bp DNA duplexes, 8% PAAG was used.

Data set [3] concerns HUSpm mutants (F14A, F29A, F31A). Put plainly: EMSA, inhibitor evaluation on HUSpm mutants F14A, F29A, F31A. The settings on record: data not shown. In kind it is binding, Spiroplasma melliferum.
Data set [4] concerns the target HUSpm_R57A (Spiroplasma melliferum, UniProt A0ABX5UAT3, R57A). The settings on record: read-out: IC50 against HUSpm mutant HUSpm_R57A; EMSA with DS24a; mean ± SD from three runs; 200 mM HUSpm_R57A as printed.
Protocol: (§6) Binding of HU proteins to DNA was analyzed by electrophoretic mobility shift assays (EMSA) performed as described previously[5]. Different amounts of the HU proteins (30 nM HUSpm and HUSpm_K35T, 60 nM HUMgal and HUEc, 100 nM HUSpm_K80A and HUSpm_K88A, and 200 mM HUSpm_R57A) were incubated with DNA (10 nM) in 10 μl of the binding buffer (20 mM Tris–HCl pH 8.0, 7% glycerol, and 150 mM of NaCl) for 10 min. Then, the samples were loaded to pre-runned (125 V, 30 min) 10% non-denaturing PAAG, buffered with 100 mM Tris–borate, and electrophoretically separated (125 V, 90 min). […] Gels were visualized using BIO RAD Faros FX Molecular Imager (532 nm EX, 605 nm BP), and quantification was performed using Quantity One software. The dissociation constants (Kd) were calculated as described earlier[16].
as §5
In data set [5] the test system is S. melliferum KC3. Put plainly: Broth micro-dilution test, MIC. The class given is cell-based, Spiroplasma melliferum. As to conditions: S. melliferum growth in culture, phenol red colour change, three determinations. The text has this: (§1) Since HU proteins are known to be essential for mycoplasma cell viability, [32], we assessed the effects of the inhibitors on M. gallisepticum and S. melliferum growth in culture. […] The growth of metabolizing organisms causes a change in the pH of the medium leading to a visible color change due to the presence of phenol red in the medium. When the growth of bacteria is inhibited, color change is not observed. The MIC is the lowest inhibitor concentration that prevents the color change at the time when the color change has developed in control (untreated) samples.
(§2) The S. melliferum KC3 strain was kindly provided by Prof. G. Wroblewsky of the University of Rennes, France. The M. gallisepticum S6 strain was provided by Prof. S. N. Borkhsenius, Institute of Cytology, St. Petersburg, Russian Academy of Science. The bacteria were cultivated as described in[62] without any specific aeration in covered flasks, for less than five passage. M. gallisepticum S6 was cultivated in a modified Edward’s liquid medium (tryptose (20 g/l), Tris (3 g/l), NaCl (5 g/l), KCl (1.3 g/l), yeast dialysate (5%), heat inactivated (56 °C–30 min) horse serum (6%), glucose (0.5%) and penicillin 300U/ml, pH 7.5) at 37 °C for 20 h after 1:100 dilution. […]

Data set [6] can be described thus: Solubility (stated in words). In kind it is physicochemical. The settings on record: water.
For data set [7], the system named is M. gallisepticum S6. As to the kind of experiment: Broth micro-dilution test, MIC. In kind it is cell-based, Mycoplasma gallisepticum. The settings on record: M. gallisepticum growth in culture, phenol red colour change, three determinations.
Text: as §1, §2

Data set [8] concerns the target HUSpm_K80A (Spiroplasma melliferum, UniProt A0ABX5UAT3, K80A). As to conditions: read-out: IC50 against HUSpm mutant HUSpm_K80A; EMSA with DS24a; mean ± SD from three runs; 100 nM protein.
Protocol: as §6, §5
Data set [9] deals with HUSpm_K88A (Spiroplasma melliferum, UniProt A0ABX5UAT3, K88A). As to conditions: read-out: IC50 against HUSpm mutant HUSpm_R88A (so in the source); EMSA with DS24a; mean ± SD from three runs; 100 nM protein.
Protocol: as §6, §5
The target in data set [10] is HUSpm_K35T (Spiroplasma melliferum, UniProt A0ABX5UAT3, K35T).
Protocol: Thus, previously obtained HUSpm mutants (F14A, F29A, F31A and K35T) were employed for inhibitor evaluation.
as §6, §5
Data set [11] concerns the target T1, HUEc (HUα-homodimer from E. coli) (Escherichia coli, UniProt P0ACF0).
T1 construct: made in house
Put plainly: biochemical. The class given is binding.
Protocol: as §3, §4, §5

Data set [12] has as its system HUSpm (Spiroplasma melliferum), PDB:5L8Z_1. As to the kind of experiment: EMSA. The settings on record: EMSA: 20 mM Tris-HCl pH 8.0, 150 mM NaCl, 7% glycerol, 10 nM DNA, 10 min, temperature not stated; NMR: 50 mM sodium phosphate pH 7.2, 0.1 mM NaN3, 30 C.
Where [13] appears, read: EMSA with DS24a, average ± SD from three runs, read-out: IC50, inhibition of HUMgal DNA-binding.
Setting [14] is: EMSA with DS24a duplex, average±SD from three runs, read-out: IC50, half-maximal inhibitory concentration of HUSpm-DNA complex formation.
[15] abbreviates: EMSA with DS48 duplex, average±SD, n=3, read-out: IC50, half-maximal inhibitory concentration of HUSpm-DNA complex formation.

HUMgal, sequence (A0A0F6CKR5 entry or part of it): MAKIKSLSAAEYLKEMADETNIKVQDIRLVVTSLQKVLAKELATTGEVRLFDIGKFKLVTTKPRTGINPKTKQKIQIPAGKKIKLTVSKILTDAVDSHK
T1 sequence (P0ACF0 whole entry): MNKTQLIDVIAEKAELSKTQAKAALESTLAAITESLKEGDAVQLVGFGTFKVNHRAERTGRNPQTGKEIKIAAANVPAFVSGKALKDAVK

With “4,5'-[4,4'-(9H-fluorene-9,9-diyl)bis(4,1-phenylene)]-bis(oxy)-bis(oxomethylene)-bis[2-(m-tolylcarbamoyl)-benzoic acid] [BDF5]”, the results for the IC50 in [1] (setting [13]) and in [2] (setting [14]) were 5.9 ± 0.8 µM and 6.3 ± 0.7 µM, respectively.
Turning to `O=C(Oc1ccc(C2(c3ccc(OC(=O)c4ccc(C(=O)O)c(C(=O)O)c4)cc3)c3ccccc3-c3ccccc32)cc1)c1ccc(C(=O)O)c(C(=O)O)c1` [BDF1], the “Inhibition of HUSpm-DNA binding, first round of EMSA” value in data set [2] (100 μM compound, DS48) is recorded as “inhibits HUSpm-DNA binding”. The IC50 in [2] (setting [14]) worked out at 6.2 ± 0.5 µM; in data set [2] (setting [15]), 6.5 ± 0.9 µM.
As to `O=C(Oc1ccc(C2(c3ccc(OC(=O)c4ccc(C(=O)O)c(C(=O)O)c4)cc3)c3ccccc3-c3ccccc32)cc1)c1ccc(C(=O)O)c(C(=O)O)c1` [BDF4, 4,4'-[4,4'-(9H-fluorene-9,9-diyl)-bis(4,1-phenylene)]-bis(oxy)-bis(oxomethylene)diphthalic acid], the IC50 came out at 5 ± 0.6 µM in data set [1] (setting [13]); 5.6 ± 0.8 µM in data set [2] (read-out: IC50, half-maximal inhibitory concentration of HUSpm-DNA complex formation, EMSA with DS24a duplex, average±SD from three runs); 6.3 ± 1 µM in data set [4]; 5.9 ± 0.9 µM in data set [8]; 6.3 ± 1.2 µM in data set [9]; 1.8 ± 0.3 µM in data set [10] (read-out: IC50 against HUSpm mutant HUSpm_K35T, EMSA with DS24a, mean ± SD from three runs, 30 nM protein). For the same compound, the “Effect of other mutations (F14A, F29A, F31A) on sensitivity to inhibitor” value in data set [3] is “did not cause any significant effects”. Besides, the MIC lay within 40 to 70 µM (≈ 29.4 to 51.4 µg/mL) in data set [5] (Spiroplasma melliferum, KC3, read-out: MIC, minimal inhibitory concentration) and 40 to 70 µM (≈ 29.4 to 51.4 µg/mL) in data set [7] (Mycoplasmoides gallisepticum, S6, read-out: MIC, minimal inhibitory concentration). Further, in data set [6], the Solubility result is recorded as “water solubility”. Also, in [10] (HUSpm_K35T vs wild type, DS24a), the “Decrease of the IC50 value as compared to wild type HUSpm” value is “about threefold decrease”.
As to `O=C(O)c1cccc(C(=O)Oc2ccc(C3(c4ccc(OC(=O)c5cccc(C(=O)O)c5)cc4)c4ccccc4-c4ccccc43)cc2)c1` [BDF6, 3.3′-[4.4′-(9H-fluorene-9.9-diyl)-bis(4.1-phenylene)]-bis(oxy)-bis(oxomethylene)-dibenzoic acid], the IC50 was determined as 8.2 µM in [1] (DS24a, representative result of one independent assay, read-out: IC50 given in figure, HUMgal DNA binding); 8.1 ± 1 µM in data set [1] (setting [13]); 8.2 ± 1.1 µM in [2] (IC50, half-maximal inhibitory concentration of HUSpm-DNA complex formation, EMSA with DS24a duplex, average±SD from three runs); 8.7 µM in data set [2] (IC50 given in figure, HUSpm-DNA binding, DS24a, representative result of one independent assay); 10 ± 1.3 µM in data set [11] (IC50, inhibition of HUEc DNA-binding, EMSA with DS24a, average ± SD from three runs); 9.5 µM in data set [11] (IC50 given in figure, HUEc DNA binding, DS24a, representative result of one independent assay). The “MIC, minimal inhibitory concentration” value in data set [5] and in [7] was “worst MIC” throughout. Moreover, the Solubility result in data set [6] was “limited solubility”.
On to `CSCCC(NS(=O)(=O)c1ccc2c(c1)C(=O)c1cc(S(=O)(=O)NC(CCSC)C(=O)O)ccc1-2)C(=O)O` (stereo not shown) [compound 3], for which, in data set [2] (setting [15]), the IC50 is above 100 µM.
In [12], “AGTCTAGAGTGCAAGTTGAGTCCTT / AAGGACTCAACTGCACTCTAGACT [DS24a (24a)]” gave a Kd of 0.0026 µM.
“AGTCTAGAGTGCAGTTGAGTCCTTGCTACGACGGATCCCTTAGGTCAG (double strand) [DS48 (48)]”: in data set [12], the dissociation constant (Kd) worked out at 0.0186 µM.
“AGTCTAGAGTGCAGTTGAGTCCTTGCTACGACGGATCCCTTAGGTCAG / AAGGACTCAACTGCACTCTAGACT / CTGACCTAAGGGATCCGTCGTAG [Nick (N)]” showed a Kd in data set [12] of 0.0052 µM. Against the preceding compound, the Kd is about 3.6-fold lower.
In turn, “AGTCTAGAGTGCAGTTGAGTCCTTGCTACGACGGATCCCTTAGGTCAG / CTGACCTAAGGGATCCGTCGTAGCAAGAAAAAAAGACTCAACTGCACTCTAGACT [A7 bulge (A7)]” registered a Kd in data set [12] of 0.002 µM. This Kd is about 2.6-fold lower than that of the compound before.
As to “AGTCTAGAGTGCAGTTGAGTCCTTGCTACGACGGATCCCTTAGGTCAG / CTGACCTAAGGGATCCGTCGTAGCAAGAGACTCAACTGCACTCTAGACT [A1 bulge (A1)]”, the Kd in data set [12] came out at 0.0025 µM. This Kd and that of the compound before are within 1.5-fold of each other.
